{
  "source": "ChEMBL document CHEMBL4622887",
  "about": "“Antibacterial Pentacyclic Polyketides from a Soil-Derived Streptomyces” (2020)",
  "format_in_all_cases": "functional",
  "key": {"[1]": {"tested_on": "Staphylococcus aureus", "experiment": "Antibacterial activity against methicillin-resistant Staphylococcus aureus shhs-A1 incubated for 16 hrs by broth microdilution method", "conditions": "shhs-A1, 16 h"}, "[2]": {"tested_on": "Staphylococcus aureus", "experiment": "Antibacterial activity against Staphylococcus aureus ATCC 6538 incubated for 16 hrs by broth microdilution method", "conditions": "ATCC 6538, 16 h"}, "[3]": {"tested_on": "Bacillus spizizenii", "experiment": "Antibacterial activity against Bacillus subtilis ATCC 6633 incubated for 16 hrs by broth microdilution method", "conditions": "ATCC 6633, 16 h"}, "[4]": {"tested_on": "Escherichia coli", "experiment": "Antibacterial activity against Escherichia coli ATCC 8099 incubated for 16 hrs by broth microdilution method", "conditions": "ATCC 8099, 16 h"}},
  "data": [
    {"smiles": "COc1cc(C)c(-c2cc(OC)c(Cl)c3c2C(=O)[C@@]2(O)C(=O)c4c(O)cc(O)c(Cl)c4C(C)(C)[C@H]2C3)c(OC)c1", "values": [
      {"measurement": "MIC", "setting": "[1]", "result": 1.56, "unit": "µg/mL"},
      {"measurement": "MIC", "setting": "[2]", "result": 0.78, "unit": "µg/mL"},
      {"measurement": "MIC", "setting": "[3]", "result": 3.13, "unit": "µg/mL"},
      {"measurement": "MIC", "setting": "[4]", "result": 1.56, "unit": "µg/mL"}
    ]},
    {"smiles": "COc1cc(C)c(-c2cc(OC)c(Cl)c3c2C(=O)[C@@]2(O)C(=O)c4c(O)cc(O)cc4C(C)(C)[C@H]2C3)c(O)c1", "values": [
      {"measurement": "MIC", "setting": "[1]", "result": 6.25, "unit": "µg/mL"},
      {"measurement": "MIC", "setting": "[2]", "result": 6.25, "unit": "µg/mL"},
      {"measurement": "MIC", "setting": "[3]", "result": 6.25, "unit": "µg/mL"},
      {"measurement": "MIC", "setting": "[4]", "result": 3.13, "unit": "µg/mL"}
    ]},
    {"smiles": "COc1cc(O)cc(C)c1-c1cc(O)c(Cl)c2cc3c(c(O)c12)C(=O)c1c(O)cc(O)cc1C3(C)C", "values": [
      {"measurement": "MIC", "setting": "[1]", "result": 3.13, "unit": "µg/mL"},
      {"measurement": "MIC", "setting": "[2]", "result": 1.56, "unit": "µg/mL"},
      {"measurement": "MIC", "setting": "[3]", "result": 6.25, "unit": "µg/mL"},
      {"measurement": "MIC", "setting": "[4]", "result": 6.25, "unit": "µg/mL"}
    ]},
    {"smiles": "NC[C@H]1O[C@H](O[C@H]2[C@H](O)[C@@H](O[C@H]3O[C@H](CO)[C@@H](O)[C@H](N)[C@H]3O)[C@H](N)C[C@@H]2N)[C@H](O)[C@@H](O)[C@@H]1O", "note": "[KANAMYCIN]", "values": [
      {"measurement": "MIC", "setting": "[2]", "result": 1.56, "unit": "µg/mL"},
      {"measurement": "MIC", "setting": "[3]", "result": 0.78, "unit": "µg/mL"},
      {"measurement": "MIC", "setting": "[4]", "result": 50, "unit": "µg/mL"}
    ]},
    {"smiles": "COc1cc(OC)c(-c2cc(OC)c(Cl)c3c2C(=O)[C@@]2(O)C(=O)c4c(O)cc(O)c(Cl)c4C(C)(C)[C@H]2C3)c(C)c1Cl", "values": [
      {"measurement": "MIC", "setting": "[1]", "result": 3.13, "unit": "µg/mL"},
      {"measurement": "MIC", "setting": "[2]", "result": 3.13, "unit": "µg/mL"},
      {"measurement": "MIC", "setting": "[3]", "result": 1.56, "unit": "µg/mL"},
      {"measurement": "MIC", "setting": "[4]", "result": 1.56, "unit": "µg/mL"}
    ]},
    {"smiles": "CN[C@H](CC(C)C)C(=O)N[C@H]1C(=O)N[C@@H](CC(N)=O)C(=O)N[C@H]2C(=O)N[C@H]3C(=O)N[C@H](C(=O)N[C@H](C(=O)O)c4cc(O)cc(O)c4-c4cc3ccc4O)[C@H](O)c3ccc(c(Cl)c3)Oc3cc2cc(c3O[C@@H]2O[C@H](CO)[C@@H](O)[C@H](O)[C@H]2O[C@H]2C[C@](C)(N)[C@H](O)[C@H](C)O2)Oc2ccc(cc2Cl)[C@H]1O", "note": "[VANCOMYCIN]", "values": [
      {"measurement": "MIC", "setting": "[1]", "result": 1.56, "unit": "µg/mL"}
    ]},
    {"smiles": "COc1cc(C)c(-c2cc(OC)c(Cl)c3cc4c(c(O)c23)C(=O)c2c(O)cc(O)cc2C4(C)C)c(OC)c1", "values": [
      {"measurement": "MIC", "setting": "[1]", "result": 3.13, "unit": "µg/mL"},
      {"measurement": "MIC", "setting": "[2]", "result": 3.13, "unit": "µg/mL"},
      {"measurement": "MIC", "setting": "[3]", "result": 12.5, "unit": "µg/mL"},
      {"measurement": "MIC", "setting": "[4]", "result": 3.13, "unit": "µg/mL"}
    ]},
    {"smiles": "COc1cc(-c2c(O)cc(OC)c(Cl)c2C)c2c(O)c3c(cc2c1)C(C)(C)c1cc(O)cc(O)c1C3=O", "values": [
      {"measurement": "MIC", "setting": "[1]", "result": 3.13, "unit": "µg/mL"},
      {"measurement": "MIC", "setting": "[2]", "result": 6.25, "unit": "µg/mL"},
      {"measurement": "MIC", "setting": "[3]", "result": 6.25, "unit": "µg/mL"},
      {"measurement": "MIC", "setting": "[4]", "result": 3.13, "unit": "µg/mL"}
    ]},
    {"smiles": "COc1cc(C)c(-c2cc(OC)cc3cc4c(c(O)c23)C(=O)c2c(O)cc(O)cc2C4(C)C)c(OC)c1", "values": [
      {"measurement": "MIC", "setting": "[1]", "result": 1.56, "unit": "µg/mL"},
      {"measurement": "MIC", "setting": "[2]", "result": 3.13, "unit": "µg/mL"},
      {"measurement": "MIC", "setting": "[3]", "result": 3.13, "unit": "µg/mL"},
      {"measurement": "MIC", "setting": "[4]", "result": 1.56, "unit": "µg/mL"}
    ]},
    {"smiles": "COc1cc(C)c(-c2cc(O)c(Cl)c3c2C(=O)[C@@]2(O)C(=O)c4c(O)cc(O)cc4C(C)(C)[C@H]2C3)c(O)c1", "values": [
      {"measurement": "MIC", "setting": "[2]", "result": 12.5, "unit": "µg/mL"},
      {"measurement": "MIC", "setting": "[3]", "result": 50, "unit": "µg/mL"},
      {"measurement": "MIC", "setting": "[4]", "result": 25, "unit": "µg/mL"}
    ]},
    {"smiles": "COc1cc(OC)c(-c2cc(OC)c(Cl)c3c2C(=O)[C@@]2(O)C(=O)c4c(cc(O)c(Cl)c4O)C(C)(C)[C@H]2C3)c(C)c1Cl", "values": [
      {"measurement": "MIC", "setting": "[1]", "result": 3.13, "unit": "µg/mL"},
      {"measurement": "MIC", "setting": "[2]", "result": 6.25, "unit": "µg/mL"},
      {"measurement": "MIC", "setting": "[3]", "result": 3.13, "unit": "µg/mL"},
      {"measurement": "MIC", "setting": "[4]", "result": 12.5, "unit": "µg/mL"}
    ]},
    {"smiles": "COc1cc(C)c(-c2cc(OC)c(Cl)c3c2C(=O)[C@@]2(O)C(=O)c4c(O)cc(O)cc4C(C)(C)[C@H]2C3)c(OC)c1", "values": [
      {"measurement": "MIC", "setting": "[1]", "result": 1.56, "unit": "µg/mL"},
      {"measurement": "MIC", "setting": "[2]", "result": 3.13, "unit": "µg/mL"},
      {"measurement": "MIC", "setting": "[3]", "result": 3.13, "unit": "µg/mL"},
      {"measurement": "MIC", "setting": "[4]", "result": 3.13, "unit": "µg/mL"}
    ]},
    {"smiles": "COc1cc(OC)c(-c2cc(OC)c(Cl)c3c2C(=O)[C@@]2(O)C(=O)c4c(O)cc(O)cc4C(C)(C)[C@H]2C3)c(C)c1Cl", "values": [
      {"measurement": "MIC", "setting": "[1]", "result": 25, "unit": "µg/mL"},
      {"measurement": "MIC", "setting": "[2]", "result": 6.25, "unit": "µg/mL"},
      {"measurement": "MIC", "setting": "[3]", "result": 25, "unit": "µg/mL"},
      {"measurement": "MIC", "setting": "[4]", "result": 25, "unit": "µg/mL"}
    ]},
    {"smiles": "COc1cc(C)c(-c2cc(OC)cc3cc4c(c(O)c23)C(=O)c2c(O)cc(O)cc2C4(C)C)c(O)c1", "values": [
      {"measurement": "MIC", "setting": "[1]", "result": 3.13, "unit": "µg/mL"},
      {"measurement": "MIC", "setting": "[2]", "result": 3.13, "unit": "µg/mL"},
      {"measurement": "MIC", "setting": "[3]", "result": 6.25, "unit": "µg/mL"},
      {"measurement": "MIC", "setting": "[4]", "result": 3.13, "unit": "µg/mL"}
    ]},
    {"smiles": "COc1cc2c(c(-c3c(O)cc(OC)c(Cl)c3C)c1)C(=O)[C@@]1(O)C(=O)c3c(O)cc(O)cc3C(C)(C)[C@H]1C2", "values": [
      {"measurement": "MIC", "setting": "[1]", "result": 3.13, "unit": "µg/mL"},
      {"measurement": "MIC", "setting": "[2]", "result": 3.13, "unit": "µg/mL"},
      {"measurement": "MIC", "setting": "[3]", "result": 6.25, "unit": "µg/mL"},
      {"measurement": "MIC", "setting": "[4]", "result": 3.13, "unit": "µg/mL"}
    ]},
    {"smiles": "COc1cc(C)c(-c2cc(O)c(Cl)c3cc4c(c(O)c23)C(=O)c2c(O)cc(OC)cc2C4(C)C)c(OC)c1", "values": [
      {"measurement": "MIC", "setting": "[1]", "result": 6.25, "unit": "µg/mL"},
      {"measurement": "MIC", "setting": "[2]", "result": 6.25, "unit": "µg/mL"},
      {"measurement": "MIC", "setting": "[3]", "result": 6.25, "unit": "µg/mL"},
      {"measurement": "MIC", "setting": "[4]", "result": 6.25, "unit": "µg/mL"}
    ]},
    {"smiles": "COc1cc(O)c(-c2cc(OC)c(Cl)c3c2C(=O)[C@@]2(O)C(=O)c4c(O)cc(O)cc4C(C)(C)[C@H]2C3)c(C)c1Cl", "values": [
      {"measurement": "MIC", "setting": "[1]", "result": 1.56, "unit": "µg/mL"},
      {"measurement": "MIC", "setting": "[2]", "result": 0.39, "unit": "µg/mL"},
      {"measurement": "MIC", "setting": "[3]", "result": 1.56, "unit": "µg/mL"},
      {"measurement": "MIC", "setting": "[4]", "result": 1.56, "unit": "µg/mL"}
    ]},
    {"smiles": "COc1cc(O)c(-c2cc(O)cc3cc4c(c(O)c23)C(=O)c2c(O)cc(O)cc2C4(C)C)c(C)c1Cl", "values": [
      {"measurement": "MIC", "setting": "[1]", "result": 1.56, "unit": "µg/mL"},
      {"measurement": "MIC", "setting": "[2]", "result": 3.13, "unit": "µg/mL"},
      {"measurement": "MIC", "setting": "[3]", "result": 3.13, "unit": "µg/mL"},
      {"measurement": "MIC", "setting": "[4]", "result": 3.13, "unit": "µg/mL"}
    ]},
    {"smiles": "COc1cc(C)c(-c2cc(OC)c(Cl)c3c2C(=O)[C@@]2(O)C(=O)c4c(O)c(Cl)c(O)c(Cl)c4C(C)(C)[C@H]2C3)c(OC)c1", "values": [
      {"measurement": "MIC", "setting": "[1]", "result": 0.2, "unit": "µg/mL"},
      {"measurement": "MIC", "setting": "[2]", "result": 0.39, "unit": "µg/mL"},
      {"measurement": "MIC", "setting": "[3]", "result": 0.39, "unit": "µg/mL"},
      {"measurement": "MIC", "setting": "[4]", "result": 0.78, "unit": "µg/mL"}
    ]}
  ]
}
